One block for each compound: values may come before it. Where a SMILES comes first, the peptide text is derived from it. Bridges are numbered along the chain shown (N, C = ends). [ ]: non-standard residue; d: D form. hArg = N=C(N)NCCCC[C@H](N)C(=O)O; S5 = C=CCCC[C@](C)(N)C(=O)O
What was measured:
[1] = Binding affinity to GDP bound RAF (unknown origin) assessed as dissociation constant; design: species or system Homo sapiens
[2] = target: Epidermal growth factor receptor (Homo sapiens) (UniProt P00533); assay: Inhibition of EGFR in human NCI-H1299 cells assessed as inhibition in MEK phosphorylation relative to control; format: cell-based; details: concentration not given here
Epidermal growth factor receptor (Homo sapiens), sequence (P00533 whole entry): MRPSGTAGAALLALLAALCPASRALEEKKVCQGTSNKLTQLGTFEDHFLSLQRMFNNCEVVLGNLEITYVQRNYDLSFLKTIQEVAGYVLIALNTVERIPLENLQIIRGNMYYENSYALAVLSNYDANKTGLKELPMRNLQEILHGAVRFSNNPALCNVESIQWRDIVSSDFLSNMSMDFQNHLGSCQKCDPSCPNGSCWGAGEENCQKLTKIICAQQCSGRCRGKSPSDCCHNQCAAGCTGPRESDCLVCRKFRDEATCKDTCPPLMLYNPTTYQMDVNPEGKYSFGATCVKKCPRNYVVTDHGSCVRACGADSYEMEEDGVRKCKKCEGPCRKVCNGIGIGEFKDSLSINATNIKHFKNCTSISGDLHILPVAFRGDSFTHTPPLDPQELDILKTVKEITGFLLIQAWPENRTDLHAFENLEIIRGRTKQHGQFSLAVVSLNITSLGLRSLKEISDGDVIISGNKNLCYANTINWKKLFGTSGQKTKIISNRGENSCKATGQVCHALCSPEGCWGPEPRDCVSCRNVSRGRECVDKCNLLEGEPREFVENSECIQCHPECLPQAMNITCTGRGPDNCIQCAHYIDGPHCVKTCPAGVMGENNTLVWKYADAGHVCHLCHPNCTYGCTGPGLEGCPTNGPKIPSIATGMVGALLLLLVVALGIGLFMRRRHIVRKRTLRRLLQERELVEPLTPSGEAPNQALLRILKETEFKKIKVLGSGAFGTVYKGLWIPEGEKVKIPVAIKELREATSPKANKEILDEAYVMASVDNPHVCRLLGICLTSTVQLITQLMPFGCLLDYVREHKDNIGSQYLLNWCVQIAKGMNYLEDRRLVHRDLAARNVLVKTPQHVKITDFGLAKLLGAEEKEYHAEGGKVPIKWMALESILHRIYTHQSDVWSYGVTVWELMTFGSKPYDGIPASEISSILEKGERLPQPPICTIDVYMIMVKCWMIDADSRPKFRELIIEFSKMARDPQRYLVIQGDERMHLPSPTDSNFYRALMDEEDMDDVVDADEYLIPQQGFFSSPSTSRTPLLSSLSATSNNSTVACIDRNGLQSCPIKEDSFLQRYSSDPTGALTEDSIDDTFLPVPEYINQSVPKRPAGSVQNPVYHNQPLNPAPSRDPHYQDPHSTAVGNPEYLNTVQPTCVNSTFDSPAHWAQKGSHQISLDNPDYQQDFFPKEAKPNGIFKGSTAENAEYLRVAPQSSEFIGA

[3] = target: T1, GTPase KRas (Homo sapiens, UniProt P01116, G12V); assay: Binding affinity to KRas G12V mutant (unknown origin) assessed as apparent dissociation constant by fluorescence anisotropy analysis; details: read-out: Kd(app)
T1 sequence (P01116 whole entry G12V): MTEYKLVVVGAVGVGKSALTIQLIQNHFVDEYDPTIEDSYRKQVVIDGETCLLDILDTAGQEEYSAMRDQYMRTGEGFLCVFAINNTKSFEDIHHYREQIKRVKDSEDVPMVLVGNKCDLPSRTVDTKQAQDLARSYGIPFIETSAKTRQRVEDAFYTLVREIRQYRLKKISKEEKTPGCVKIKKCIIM

[4] = target: Epidermal growth factor receptor (Homo sapiens) (UniProt P00533); assay: Inhibition of EGFR in human NCI-H1299 cells assessed as inhibition in Akt phosphorylation relative to control; format: cell-based; details: concentration not given here
[5] = target: T2, GTPase KRas (Homo sapiens, UniProt P01116); assay: Binding affinity to KRas (unknown origin) assessed as apparent dissociation constant by fluorescence anisotropy analysis; details: read-out: Kd(app)
T2 sequence (P01116 whole entry): as the sequence (P01116 whole entry G12V) above, with V12G counted along it

[6] = target: GTPase KRas/RAF1 (Homo sapiens, UniProt P01116); assay: Inhibition of KRAS/RAF interaction (unknown origin); format: protein assay
GTPase KRas/RAF1, sequence (P04049 whole entry): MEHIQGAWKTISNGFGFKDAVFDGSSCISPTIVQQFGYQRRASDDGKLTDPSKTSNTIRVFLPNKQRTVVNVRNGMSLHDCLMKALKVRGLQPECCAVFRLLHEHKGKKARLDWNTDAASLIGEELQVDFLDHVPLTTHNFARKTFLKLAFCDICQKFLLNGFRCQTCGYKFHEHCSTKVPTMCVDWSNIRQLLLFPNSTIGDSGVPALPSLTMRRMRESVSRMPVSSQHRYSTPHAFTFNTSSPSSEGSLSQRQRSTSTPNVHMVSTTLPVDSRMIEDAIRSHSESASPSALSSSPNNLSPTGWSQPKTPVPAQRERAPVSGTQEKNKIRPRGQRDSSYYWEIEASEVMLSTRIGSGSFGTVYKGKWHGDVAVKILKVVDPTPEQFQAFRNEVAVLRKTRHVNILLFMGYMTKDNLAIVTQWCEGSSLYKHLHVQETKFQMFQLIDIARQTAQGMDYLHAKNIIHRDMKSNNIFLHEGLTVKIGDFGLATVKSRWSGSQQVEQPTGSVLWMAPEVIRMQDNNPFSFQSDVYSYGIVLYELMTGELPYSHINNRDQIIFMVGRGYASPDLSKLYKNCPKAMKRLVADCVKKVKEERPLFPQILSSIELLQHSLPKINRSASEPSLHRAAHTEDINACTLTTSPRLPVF
GTPase KRas/RAF1, sequence (P01116 whole entry): as the sequence (P01116 whole entry G12V) above, with V12G counted along it

[7] = target: T3, GTPase HRas (Homo sapiens, UniProt P01112); assay: Binding affinity to wild-type H-Ras (unknown origin) assessed as dissociation constant by fluorescence polarization assay
T3 sequence (P01112 whole entry): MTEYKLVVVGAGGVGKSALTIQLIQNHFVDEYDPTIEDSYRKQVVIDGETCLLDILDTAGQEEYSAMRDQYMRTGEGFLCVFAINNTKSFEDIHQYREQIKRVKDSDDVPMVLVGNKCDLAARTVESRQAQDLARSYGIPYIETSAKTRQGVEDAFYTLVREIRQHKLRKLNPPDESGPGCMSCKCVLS

[8] = tested on: NCI-H358; assay: Cytotoxicity against human NCI-H358 cells measured after 24 hrs by CCK-8 method; format: functional, cell-based; details: NCI-H358, 24 h
[9] = tested on: NCI-H358; assay: Cytotoxicity against human NCI-H358 cells measured after 48 hrs by CCK-8 method; format: functional, cell-based; details: NCI-H358, 48 h
[10] = tested on: NCI-H358; assay: Cytotoxicity against human NCI-H358 cells measured after 36 hrs by CCK-8 method; format: functional, cell-based; details: NCI-H358, 36 h
[11] = tested on: NCI-H358; assay: Cytotoxicity against human NCI-H358 cells measured after 72 hrs by CCK-8 method; format: functional, cell-based; details: NCI-H358, 72 h
[12] = target: T4, GTPase KRas (Homo sapiens, UniProt P01116, G12C); assay: Binding affinity to KRas G12C mutant (unknown origin) assessed as dissociation constant by biolayer interferometry assay
T4 sequence (P01116 whole entry G12C): as the sequence (P01116 whole entry G12V) above, with V12C counted along it

[13] = target: GTPase KRas (Homo sapiens, UniProt P01116, G12D); assay: Inhibition of KRas G12D mutant (unknown origin) by fluorescence polarization assay
GTPase KRas (Homo sapiens, UniProt P01116, G12D), sequence (P01116 whole entry G12D): as the sequence (P01116 whole entry G12V) above, with V12D counted along it

[14] = target: T4, GTPase KRas; assay: Inhibition of KRas G12C mutant (unknown origin) by fluorescence polarization assay
[15] = target: T1, GTPase KRas; assay: Inhibition of KRas G12V mutant (unknown origin) by fluorescence polarization assay
[16] = target: GTPase KRas (Homo sapiens, UniProt P01116, G12S); assay: Inhibition of KRas G12S mutant (unknown origin) by fluorescence polarization assay
GTPase KRas (Homo sapiens, UniProt P01116, G12S), sequence (P01116 whole entry G12S): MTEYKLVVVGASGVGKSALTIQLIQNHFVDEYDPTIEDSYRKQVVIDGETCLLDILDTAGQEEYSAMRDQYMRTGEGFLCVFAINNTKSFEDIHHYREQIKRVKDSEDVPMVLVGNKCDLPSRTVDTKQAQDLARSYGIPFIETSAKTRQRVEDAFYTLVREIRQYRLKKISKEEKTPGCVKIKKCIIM

[17] = Inhibition of KRas Q61H mutant (unknown origin) by fluorescence polarization assay; design: species or system Homo sapiens
[18] = target: T2, GTPase KRas; assay: Inhibition of recombinant wild-type KRas (unknown origin) by fluorescence polarization assay
[19] = target: SOS1-KRAS (Homo sapiens, UniProt P01116, G12D); assay: Inhibition of KRAS G12D mutant/SOS1 (unknown origin) interaction by TR-FRET assay; format: protein-complex assay
SOS1-KRAS, sequence (P01116 whole entry G12D, looked up): as the sequence (P01116 whole entry G12V) above, with V12D counted along it

[20] = target: T2, GTPase KRas; assay: Binding affinity to KRas (unknown origin) assessed as dissociation constant
[21] = target: T3, GTPase HRas; assay: Binding affinity to HRas (unknown origin) assessed as dissociation constant

Kd [1]: 0.37 µM
inhibition [2]: 50%
Kd [3]: 17 µM
inhibition [4]: 60%
Kd [5]: 0.21 µM
IC50 [6]: 3.4 µM
Compound: CC[C@H](C)[C@@H]1NC(=O)[C@H](Cc2cn(CCc3c(C)[nH]c4cc(Cl)cc(Cl)c34)nn2)NC(=O)[C@H](CC(N)=O)NC(=O)[C@H](CCCNC(=N)N)NC(=O)[C@H](Cc2ccccc2)NC(=O)[C@H](CC(C)C)NC(=O)[C@H](C)NC(=O)c2cc3cc(c2)C(=O)NC[C@@H](C(N)=O)NC(=O)[C@H](CCCNC(=N)N)NC(=O)[C@H](CCCNC(=N)N)NC(=O)[C@H](CCCNC(=N)N)NC(=O)[C@H](CCCNC(=N)N)NC(=O)[C@H](Cc2ccc4ccccc4c2)NC(=O)[C@H](Cc2ccccc2)NC(=O)[C@H](CCCCNC3=O)NC1=O

Kd [7]: 4.1 µM
Compound: C=CS(=O)(=O)NCCCC(=O)NCCCC[C@H](NC(=O)[C@H](CC(C)C)NC(=O)C[C@@H](CC(=O)O)NC(=O)[C@H](CC(C)C)NC(=O)[C@H](CCCNC(=N)N)NC(=O)[C@H](Cc1ccc(O)cc1)NC(=O)CC(C)(CC)NC(=O)CN1C/C=C\CCCC(=O)N[C@@H](Cc2ccccc2)C(=O)N[C@@H](CCC(=O)O)C1=O)C(=O)N[C@@H](CCCCN)C(=O)NCCC(=O)N[C@@H](CCC(=O)O)C(=O)N[C@@H](CCC(=O)O)C(=O)N[C@@H](C)C(=O)N[C@@H](CC(N)=O)C(N)=O (stereo partly specified)

Compound: CC[C@H](C)[C@H](NC(=O)CNC(=O)[C@H](Cc1ccccc1)NC(C)=O)C(=O)N[C@@]1(C)CCC/C=C\CCC[C@@](C)(C(=O)N[C@@H](CC(C)C)C(=O)N[C@@H](CCCCN)C(=O)N[C@H](C(N)=O)[C@@H](C)O)NC(=O)[C@H](CC(N)=O)NC(=O)[C@H]([C@@H](C)O)NC(=O)[C@H](CC(C)C)NC1=O (Ac-FGI[S5]LTN[S5]LKT-NH2; staple (Z) 4-8)
IC50 [8]: 15.7 µM
IC50 [9]: 5.75 µM
IC50 [10]: 7.55 µM
IC50 [11]: 6.68 µM
Kd [12]: 7.67 µM

IC50 [13]: 5 µM
IC50 [14]: 5 µM
IC50 [15]: 5 µM
IC50 [16]: 5 µM
IC50 [17]: 5 µM
IC50 [18]: 5 µM
Compound: CC[C@H](C)[C@H](NC(=O)CNC(=O)[C@H](Cc1ccccc1)NC(=O)[C@H](Cc1ccccc1)NC(=O)[C@H](CCCNC(=N)N)NC(=O)[C@H](CCCNC(=N)N)NC(C)=O)C(=O)N[C@@]1(C)CCC/C=C\CCC[C@@](C)(C(=O)N[C@@H](CC(C)C)C(=O)N[C@@H](CCCCN)C(=O)N[C@H](C(=O)N[C@@H](CCC(=O)O)C(=O)N[C@@H](CCC(=O)O)C(=O)NCC(=O)N[C@@H](CC(N)=O)C(N)=O)[C@@H](C)O)NC(=O)[C@H](CC(N)=O)NC(=O)[C@H]([C@@H](C)O)NC(=O)[C@H](CC(C)C)NC1=O

IC50 [19]: 0.016 µM
Kd [20]: 3.92 µM
Kd [21]: 3.92 µM
Compound: CC[C@H](C)[C@H](NC(=O)[C@H](Cc1c[nH]c2ccccc12)NC(C)=O)C(=O)NCC(=O)N[C@@H](CCCNC(=N)N)C(=O)N[C@@H](CC(C)C)C(=O)N[C@@H](CC(C)C)C(=O)N[C@H](C(=O)N[C@@]1(C)CCC/C=C\CCC[C@@](C)(C(=O)N[C@@H](CCCNC(=N)N)C(=O)N[C@@H](CC(N)=O)C(=O)NCC(=O)N[C@@H](CC(N)=O)C(N)=O)NC(=O)[C@H](CC(C)C)NC(=O)[C@H](CCCCNC(=N)N)NC(=O)[C@H](CCCNC(=N)N)NC1=O)[C@@H](C)O (Ac-WIGRLLT[S5]R[hArg]L[S5]RNGN-NH2; staple (Z) 8-12)

Source: ChEMBL document CHEMBL6127081, “Peptide inhibitors targeting Ras and Ras-associated protein-protein interactions” (Eur J Med Chem, 2024)
